Measured values reported in patent EP0068324A2, “Microcapsule preparation for reducing increased intracranial pressure and a process for preparing the same” (Tanabe Seiyaku Co., Ltd., priority 1981, dated 1983).

Assay: in vivo
Details: mouse, po, mice, orally administered, measured one week after administration
Excerpt: The microcapsule preparation containing a propanol derivative of the present invention can reduce the intracranial pressure in an extremely small amount, which may be by a different mechanism from the hyperosmolar dehydrating effect by the known intravenous injection of a large amount of hypertonic solution, and the therapeutic effect is large and durable without showing any side effect such as a rebound increase of the intracranial pressure. The propanol derivative (I) of the present invention is low toxic and highly safeful.

Q: Which LD50 at 168 h does the source give for `COc1cc(NC(C)=O)ccc1OCC(O)CN1CCN(c2cccc(F)c2)CC1` (stereo not shown) [1-(4-Acetamido-2-methoxyphenoxy)-3-[4-(3-fluorophenyl)piperazino]-2-propanol] here?
A: ~1500 mg/kg
